Laboratory results reported in patent US5523314A, “Compounds useful as hypoglycemic agents and for treating Alzheimer's disease” (priority 1994, dated 1996).
Like-named read-outs stand apart in the source and are kept apart here. Values belong to the compound of their own block, whether it stands above or below them.

Key:
blood glucose level [1] = assay: Hypoglycemic activity in obese diabetic mice (Table 1); assay type: in vivo, male viable yellow obese-diabetic mice
Experimental: The hypoglycemic activity of the compounds of the present invention was determined by testing the efficacy of the compounds in vivo in male viable yellow obese-diabetic mice. The test procedure is described in detail below.
Test formulations were prepared by dissolving the test compound in a saline solution containing 2% Emulphor (a polyoxyethylated vegetable oil surfactant from GAP Corp.) to provide the dose level desired. Each test formulation was administered to six viable yellow obese-diabetic mice intraperitoneally at the beginning of the experiment. Blood glucose levels were determined immediately before the first dose and at 2 and 4 hours thereafter using glucose oxidase. A mean was taken of the 6 values obtained before the first dose and at the 2 and 4 hour intervals. In Table 1, Column 1 provides the example number of the test compound, Column 2 provides the dose level of compound tested, and Columns 3 and 4 provide a measurement of the test animal's blood glucose level 2 and 4 hours after test compound administration, respectively, as a percentage of the test animal' s pre-administration blood glucose level.

Human liver cathepsin D = target: T1, Human liver cathepsin D (Homo sapiens, UniProt P07339); assay: Cathepsin D inhibition, fluorometric assay (Tables 5 and 6); assay type: biochemical; details: for inhibition at 10 µg/mL (stock): Compound Stock Concentration 10.0 μg/ml; for inhibition at 4.15 µg/mL (stock): Compound Stock Concentration 4.15 μg/ml
T1 construct: purchased Athens Research and Technology, Athens, Ga; host or cells: human liver
T1 sequence (P07339 169-412 limits assumed): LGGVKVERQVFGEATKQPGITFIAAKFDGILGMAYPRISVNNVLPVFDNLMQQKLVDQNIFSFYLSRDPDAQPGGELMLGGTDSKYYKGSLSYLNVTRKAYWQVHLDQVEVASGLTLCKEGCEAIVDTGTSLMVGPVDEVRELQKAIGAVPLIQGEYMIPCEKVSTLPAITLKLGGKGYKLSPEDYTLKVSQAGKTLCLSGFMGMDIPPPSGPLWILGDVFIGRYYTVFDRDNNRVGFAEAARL
T1 sequence (P07339 65-161 limits assumed): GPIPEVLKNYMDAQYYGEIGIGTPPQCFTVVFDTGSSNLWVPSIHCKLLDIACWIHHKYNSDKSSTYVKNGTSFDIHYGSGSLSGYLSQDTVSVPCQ
Experimental: Human liver cathepsin D (Athens Research and Technology, Athens, Ga.) was diluted in assay buffer, 200 mM NaOAc, pH 4.5, 150 mM NaCl to 500 ng/mL and then 100 μL of this cathepsin D solution was added to each well of a 96 well plate with the exception of control wells which received just 100 μL of assay buffer. […] Blank and enzyme control wells each received 5 μL of the DMSO vehicle.
After incubation at 37° C. for 30 minutes, cathepsin D activity was terminated by the addition of 100 μL per well of 400 mU/mL microsomal leucine aminopeptidase (EC 3.4.11.2, Sigma, St. Louis, Mo.) in 1M Tris-HCl, pH 8.0.
Following a two hour incubation at 37° C., to allow the aminopeptidase to release the fluorophore, 7-amido-4-methylcoumarin (AMC) from the products of cathepsin D cleavage, the plates were again analyzed in the fluorometer. In order to check for potential false positives, i.e., inhibitors of microsomal leucine aminopeptidase, residual aminopeptidase activity was monitored directly in each well by the addition of 20 μL/well of 2.5 mM Leu-pNA (Bachem Biosciences, Philadelphia, Pa.) in 10% DMSO.

blood glucose level [2] = assay: Hypoglycemic activity in normal fed rats (Table 2); assay type: in vivo, male Sprague Dawley rats; details: Rattus norvegicus, oral
Experimental: The procedure used in this test system is described below.
The desired dose level of each test formulation was administered to four rats by oral […] at the beginning of the experiment. Blood glucose levels were determined immediately before the first dose and at 3 and 5 hours thereafter by an enzymatic procedure employing glucose oxidase and peroxidase coupled with a chromogenic oxygen acceptor. A mean was taken of the 4 values obtained before the first dose and at the 3 and 5 hour intervals.

[3] = Mus musculus, ip, 2 h, intraperitoneal, 2 hrs, read-out: Percent of Initial Blood Glucose Level After 2 hrs.
[4] = Mus musculus, ip, 4 h, intraperitoneal, 4 hrs, read-out: Percent of Initial Blood Glucose Level After 4 hrs.
[5] = 3 hrs, read-out: Percent of Initial Blood Glucose Level After 3 hrs.
[6] = 5 hrs, read-out: Percent of Initial Blood Glucose Level After 5 hrs.
[7] = Mus musculus, ip, intraperitoneal, 2 hrs, read-out: Percent of Initial Blood Glucose Level After 2 hrs.
[8] = Mus musculus, ip, intraperitoneal, 4 hrs, read-out: Percent of Initial Blood Glucose Level After 4 hrs.
[9] = compared to structurally similar compounds known in the art, in words

inhibition at 10 µg/mL (stock) (Human liver cathepsin D): 36%
SMILES: CS(=O)(=O)Nc1cccc(C=C2SC(=S)NC2=O)c1 [Example 1, 5-[(3-methanesulfonamidophenyl)methylene]-2-thioxo-4-thiazolidinone]
response vs control in vivo at 50 mg/kg (blood glucose level [1]; [3]): 82 ± 5% | response vs control in vivo at 50 mg/kg (blood glucose level [1]; [4]): 75 ± 2%

inhibition at 10 µg/mL (stock) (Human liver cathepsin D): 50%
SMILES: O=C1NC(=S)SC1=C(c1ccccc1)c1ccccc1 [Example 4, 5-(diphenylmethylene)-2-thioxo-4-thiazolidinone]
response vs control in vivo at 50 mg/kg (blood glucose level [1]; [3]): 91 ± 4% | response vs control in vivo at 50 mg/kg (blood glucose level [1]; [4]): 72 ± 7%

SMILES: O=C1NC(=S)SC1=Cc1ccc(O)cc1 [Example 8, 5-[(4-hydroxyphenyl)methylene]-2-thioxo-4-thiazolidinone]
response vs control in vivo at 50 mg/kg (blood glucose level [1]; [3]): 94 ± 4% | response vs control in vivo at 50 mg/kg (blood glucose level [1]; [4]): 84 ± 6% | inhibition at 10 µg/mL (stock) (Human liver cathepsin D): 64%

SMILES: O=C1NC(=S)SC1=Cc1ccco1 [Example 15, 5-[(2-furanyl)methylene]-2-thioxo-4-thiazolidinone]
response vs control in vivo at 50 mg/kg (blood glucose level [1]; [3]): 73 ± 5% | response vs control in vivo at 50 mg/kg (blood glucose level [1]; [4]): 62 ± 4% | response vs control in vivo at 167 mg/kg (blood glucose level [2]; [5]): 84% | response vs control in vivo at 167 mg/kg (blood glucose level [2]; [6]): 87%

SMILES: O=C1NC(=S)SC1=Cc1ccncc1 [Example 16, 5-[(4-pyridyl)methylene]-2-thioxo-4-thiazolidinone]
response vs control in vivo at 50 mg/kg (blood glucose level [1]; [3]): 94 ± 8% | response vs control in vivo at 50 mg/kg (blood glucose level [1]; [4]): 96 ± 9% | response vs control in vivo at 200 mg/kg (blood glucose level [2]; [5]): 92% | response vs control in vivo at 200 mg/kg (blood glucose level [2]; [6]): 79%

SMILES: COc1cc(C=C2SC(=S)NC2=O)cc(OC)c1OC [Example 17, 5-[(3,4,5-trimethoxyphenyl)methylene]-2-thioxo-4-thiazolidinone]
response vs control in vivo at 50 mg/kg (blood glucose level [1]; [3]): 88 ± 8% | response vs control in vivo at 50 mg/kg (blood glucose level [1]; [4]): 89 ± 10% | response vs control in vivo at 200 mg/kg (blood glucose level [2]; [5]): 78% | response vs control in vivo at 200 mg/kg (blood glucose level [2]; [6]): 68%

inhibition at 10 µg/mL (stock) (Human liver cathepsin D): 38%
SMILES: COc1ccc(C=C2SC(=S)NC2=O)cc1 [Example 18, 5-[(4-methoxyphenyl)methylene]-2-thioxo-4-thiazolidinone]
response vs control in vivo at 50 mg/kg (blood glucose level [1]; [3]): 89 ± 4% | response vs control in vivo at 50 mg/kg (blood glucose level [1]; [4]): 88 ± 5%

inhibition at 4.15 µg/mL (stock) (Human liver cathepsin D): 40%
SMILES: COc1ccc(C(=C2SC(=S)NC2=O)c2ccccc2)cc1 [Example 21, 5-[(4-methoxyphenyl)phenylmethylene]-2-thioxo-4-thiazolidinone]
response vs control in vivo at 50 mg/kg (blood glucose level [1]; [3]): 99 ± 4% | response vs control in vivo at 50 mg/kg (blood glucose level [1]; [4]): 81 ± 6%

SMILES: COc1cccc(C=C2SC(=S)NC2=O)c1OC [Example 24, 5-[(2,3-dimethoxyphenyl)methylene]-2-thioxo-4-thiazolidinone]
response vs control in vivo at 50 mg/kg (blood glucose level [1]; [3]): 78 ± 4% | response vs control in vivo at 50 mg/kg (blood glucose level [1]; [4]): 80 ± 5% | response vs control in vivo at 200 mg/kg (blood glucose level [2]; [5]): 100% | response vs control in vivo at 200 mg/kg (blood glucose level [2]; [6]): 100%

SMILES: COc1cccc(C=C2SC(=S)NC2=O)c1 [Example 25, 5-[(3-methoxyphenyl)methylene]-2-thioxo-4-thiazolidinone]
response vs control in vivo at 25 mg/kg (blood glucose level [1]; [7]): 84 ± 5% | response vs control in vivo at 25 mg/kg (blood glucose level [1]; [8]): 87 ± 6% | response vs control in vivo at 50 mg/kg (blood glucose level [1]; [7]): 78 ± 4% | response vs control in vivo at 50 mg/kg (blood glucose level [1]; [8]): 74 ± 4% | response vs control in vivo at 200 mg/kg (blood glucose level [2]; [5]): 100% | response vs control in vivo at 200 mg/kg (blood glucose level [2]; [6]): 100%

SMILES: COc1ccccc1C=C1SC(=S)NC1=O [Example 26, 5-[(2-methoxyphenyl)methylene]-2-thioxo-4-thiazolidinone]
response vs control in vivo at 50 mg/kg (blood glucose level [1]; [3]): 80 ± 4% | response vs control in vivo at 50 mg/kg (blood glucose level [1]; [4]): 75 ± 2% | response vs control in vivo at 200 mg/kg (blood glucose level [2]; [5]): 100% | response vs control in vivo at 200 mg/kg (blood glucose level [2]; [6]): 100%

IC50 (Human liver cathepsin D): 3.1 µM
SMILES: CC(C)(C)c1cc(C=C2SC(=S)NC2=O)cc(C(C)(C)C)c1O [Example 28, 5-[[3,5-bis(1,1-dimethylethyl)-4-hydroxyphenyl]methylene]-2-thioxo-4-thiazolidinone]
response vs control in vivo at 50 mg/kg (blood glucose level [1]; [3]): 83 ± 9% | response vs control in vivo at 50 mg/kg (blood glucose level [1]; [4]): 79 ± 7%

IC50 (Human liver cathepsin D): 8.9 µM | inhibition at 4.15 µg/mL (stock) (Human liver cathepsin D): 57%
SMILES: O=C1NC(=S)SC1=Cc1ccc2ccccc2c1 [Example 35, 5-[(2-naphthalenyl)methylene)-2-thioxo-4-thiazolidinone]
response vs control in vivo at 50 mg/kg (blood glucose level [1]; [3]): 83 ± 5% | response vs control in vivo at 50 mg/kg (blood glucose level [1]; [4]): 85 ± 6%

SMILES: CCCCOc1ccc(C=C2SC(=S)NC2=O)cc1OC [Example 41, 5-[(3-methoxy-4-butoxyphenyl)methylene]-2-thioxo-4-thiazolidinone]
response vs control in vivo at 5 mg/kg (blood glucose level [1]; Mus musculus, ip, 2 h, 5 mg/kg, intraperitoneal, 2 hrs, read-out: Percent of Initial Blood Glucose Level After 2 hrs.): 93 ± 10% | response vs control in vivo at 10 mg/kg (blood glucose level [1]; Mus musculus, ip, 2 h, 10 mg/kg, intraperitoneal, 2 hrs, read-out: Percent of Initial Blood Glucose Level After 2 hrs.): 80 ± 7% | response vs control in vivo at 50 mg/kg (blood glucose level [1]; [3]): 61 ± 3% | response vs control in vivo at 160 mg/kg (blood glucose level [2]; [5]): 76% | response vs control in vivo at 160 mg/kg (blood glucose level [2]; [6]): 67%

SMILES: CCOc1ccc(C=C2SC(=S)NC2=O)cc1OC [Example 48, 5-[(3-methoxy-4-ethoxyphenyl)methylene]-2-thioxo-4-thiazolidinone]
response vs control in vivo at 25 mg/kg (blood glucose level [1]; [3]): 87 ± 4% | response vs control in vivo at 50 mg/kg (blood glucose level [1]; [3]): 70 ± 3% | response vs control in vivo at 25 mg/kg (blood glucose level [1]; [4]): 81 ± 5% | response vs control in vivo at 50 mg/kg (blood glucose level [1]; [4]): 65 ± 3% | response vs control in vivo at 167 mg/kg (blood glucose level [2]; [5]): 87% | response vs control in vivo at 167 mg/kg (blood glucose level [2]; [6]): 81%

inhibition at 4.15 µg/mL (stock) (Human liver cathepsin D): 40%
SMILES: CCCOc1cc(C=C2SC(=S)NC2=O)ccc1OCC [Example 50, 5-[(3-propoxy-4-ethoxyphenyl)methylene]-2-thioxo-4-thiazolidinone]
response vs control in vivo at 50 mg/kg (blood glucose level [1]; [3]): 75 ± 5% | response vs control in vivo at 50 mg/kg (blood glucose level [1]; [4]): 69 ± 5% | ability to lower blood glucose levels in mammals (blood glucose level [1]; [9]): surprising ability to lower blood glucose levels in mammals

inhibition at 4.15 µg/mL (stock) (Human liver cathepsin D): 90%
SMILES: O=C1NC(=S)SC1=Cc1cc(Cl)c(O)c(Cl)c1 [Example 55, 5-[(3,5-dichloro-4-hydroxyphenyl)methylene]-2-thioxo-4-thiazolidinone]
response vs control in vivo at 50 mg/kg (blood glucose level [1]; [3]): 81 ± 3% | response vs control in vivo at 50 mg/kg (blood glucose level [1]; [4]): 75 ± 3% | ability to inhibit cathepsin D (Human liver cathepsin D; [9]): surprising ability to inhibit cathepsin D levels

SMILES: Cc1cc(C=C2SC(=S)NC2=O)cc(C)c1O [Example 62, 5-[(3,5-dimethyl-4-hydroxyphenyl)methylene]-2-thioxo-4-thiazolidinone]
response vs control in vivo at 200 mg/kg (blood glucose level [2]; [5]): 78% | response vs control in vivo at 200 mg/kg (blood glucose level [2]; [6]): 53%

SMILES: CCCCCOc1ccc(C=C2SC(=S)N(C)C2=O)cc1OC [Example 65, 5-[(3-methoxy-4-pentoxyphenyl)methylene]-2-thioxo-3-methyl-4-thiazolidinone]
response vs control in vivo at 200 mg/kg (blood glucose level [2]; [5]): 100% | response vs control in vivo at 200 mg/kg (blood glucose level [2]; [6]): 91%

SMILES: CCCCCOc1ccc(C=C2SCNC2=O)cc1OC [Example 66, 5-[(3-methoxy-4-pentoxyphenyl)methylene]-4-thiazolidinone]
response vs control in vivo at 200 mg/kg (blood glucose level [2]; [5]): 100% | response vs control in vivo at 200 mg/kg (blood glucose level [2]; [6]): 86%

SMILES: CCCCCOc1ccc(CC2SCNC2=O)cc1OC (centres unmarked) [Example 67, 5-[(3-methoxy-4-pentoxyphenyl)methyl]-4-thiazolidinone]
response vs control in vivo at 200 mg/kg (blood glucose level [2]; [5]): 92% | response vs control in vivo at 200 mg/kg (blood glucose level [2]; [6]): 88%

SMILES: CCCCOc1ccc(C=C2SC(=S)N(N(C)C)C2=O)cc1OCCCC [Example 94, 5-[(3,4-dibutoxyphenyl)methylene]-2-thioxo-3-dimethylamino-4-thiazolidinone]
inhibition at 4.15 µg/mL (stock) (Human liver cathepsin D): 48%

SMILES: C=CCN1C(=O)C(=Cc2ccc(OCCCCCCC)c(OC)c2)SC1=S [Example 95, 5-[(3-methoxy-4-heptoxyphenyl)methylene]-2-thioxo-3-(2-propenyl)-4-thiazolidinone]
inhibition at 8.3 µg/mL (stock) (Human liver cathepsin D; Compound Stock Concentration 8.3 μg/ml): 36%
